Measurements reported in US10961248B2, “Pesticidally active heterocyclic derivatives with sulfur containing substituents” (SYNGENTA PARTICIPATIONS AG, priority 2016, dated 2021).

How the values were obtained:
Type in all cases: in vivo
[1] = tested on: Frankliniella occidentalis (Western Flower Thrips); test: Example B4: activity against Frankliniella occidentalis, sprayed sunflower leaf discs; conditions: foliar, 168 h, application rate 200 ppm, population of mixed ages, 7 days after infestation
Procedure: Sunflower leaf discs were placed on agar in 24-well microtiter plates and sprayed with aqueous test solutions prepared from 10'000 DMSO stock solutions. After drying the leaf discs were infested with a Frankliniella population of mixed ages. The samples were assessed for mortality 7 days after infestation.

[2] = tested on: Myzus persicae (Green Peach Aphid); test: Example B3: activity against Myzus persicae, roots of pea seedlings in test solution; conditions: 144 h, test rate 24 ppm, roots of infested pea seedlings in test solution, 6 days
Procedure: Roots of pea seedlings infested with an aphid population of mixed ages were placed directly in the aqueous test solutions prepared from 10'000 DMSO stock solutions. The samples were assessed for mortality 6 days after placing seedlings in test solutions.

[3] = tested on: Thrips tabaci (Onion Thrips); test: Example B7: activity against Thrips tabaci, sprayed sunflower leaf discs; conditions: foliar, 144 h, application rate 200 ppm, population of mixed ages, 6 days after infestation
Procedure: Sunflower leaf discs were placed on agar in 24-well microtiter plates and sprayed with aqueous test solutions prepared from 10'000 ppm DMSO stock solutions. After drying the leaf discs were infested with a Thrips population of mixed ages. The samples were assessed for mortality 6 days after infestation.

[4] = tested on: Plutella xylostella (Diamond Back Moth); test: Example B1: activity against Plutella xylostella, artificial diet in 24-well plates; conditions: 120 h, application rate 200 ppm, L2 larvae on artificial diet, 5 days after infestation, read-out: effect in at least one of the two categories (mortality or growth inhibition)
Procedure: 24-well microtiter plates with artificial diet were treated with aqueous test solutions prepared from 10'000 ppm DMSO stock solutions by pipetting. After drying, the plates were infested with L2 larvae (10 to 15 per well). The samples were assessed for mortality and growth inhibition in comparison to untreated samples 5 days after infestation.

[5] = tested on: Bemisia tabaci (Cotton White Fly); test: Example B5: activity against Bemisia tabaci, sprayed cotton leaf discs; conditions: foliar, 144 h, application rate 200 ppm, adult white flies, 6 days after incubation
Procedure: Cotton leaf discs were placed on agar in 24-well microtiter plates and sprayed with aqueous test solutions prepared from 10'000 ppm DMSO stock solutions. After drying the leaf discs were infested with adult white flies. The samples were checked for mortality 6 days after incubation.

[6] = tested on: Spodoptera littoralis (Egyptian Cotton Leaf Worm); test: Example B7: activity against Spodoptera littoralis, sprayed cotton leaf discs; conditions: foliar, 72 h, application rate 200 ppm, L1 larvae, 3 days after infestation
Procedure: Cotton leaf discs were placed onto agar in 24-well microtiter plates and sprayed with aqueous test solutions prepared from 10'000 ppm DMSO stock solutions. After drying the leaf discs were infested with five L1 larvae. The samples were assessed for mortality, anti-feeding effect, and growth inhibition in comparison to untreated samples 3 days after infestation. Control of Spodoptera littoralis by a test sample is given when at least one of the categories mortality, anti-feedant effect, and growth inhibition is higher than the untreated sample.

[7] = tested on: Euschistus heros (Neotropical Brown Stink Bug); test: Example B6: activity against Euschistus heros, sprayed soybean leaf; conditions: 120 h, application rate 200 ppm, N-2 nymphs, 5 days after infestation, read-out: effect in at least one of the two categories (mortality or growth inhibition)
Procedure: Soybean leaf on agar in 24-well microtiter plates were sprayed with aqueous test solutions prepared from 10'000 ppm DMSO stock solutions. After drying the leaf were infested with N-2 nymphs. The samples were assessed for mortality and growth inhibition in comparison to untreated samples 5 days after infestation.

[8] = tested on: Diabrotica Balteata (Corn Root Worm); test: Example B7: activity against Diabrotica balteata, sprayed maize sprouts; conditions: 96 h, application rate 200 ppm, L2 larvae, 4 days after infestation, read-out: effect in at least one of the two categories (mortality or growth inhibition)
Procedure: Maize sprouts placed onto an agar layer in 24-well microtiter plates were treated with aqueous test solutions prepared from 10'000 ppm DMSO stock solutions by spraying. After drying, the plates were infested with L2 larvae (6 to 10 per well). The samples were assessed for mortality and growth inhibition in comparison to untreated samples 4 days after infestation.

[9] = tested on: Myzus persicae (Green Peach Aphid); test: Example B2: activity against Myzus persicae, sprayed sunflower leaf discs; conditions: foliar, 144 h, application rate 200 ppm, aphid population of mixed ages, 6 days after infestation
Procedure: Sunflower leaf discs were placed on agar in a 24-well microtiter plate and sprayed with aqueous test solutions prepared from 10'000 ppm DMSO stock solutions. After drying, the leaf discs were infested with an aphid population of mixed ages. The samples were assessed for mortality 6 days after infestation.

[10] = tested on: Tetranychus urticae (Two-Spotted Spider Mite); test: Example B7: activity against Tetranychus urticae, sprayed bean leaf discs; conditions: foliar, 192 h, application rate 200 ppm, mixed population (mobile stages), 8 days after infestation
Procedure: Bean leaf discs on agar in 24-well microtiter plates were sprayed with aqueous test solutions prepared from 10'000 ppm DMSO stock solutions. After drying the leaf discs were infested with a mite population of mixed ages. The samples were assessed for mortality on mixed population (mobile stages) 8 days after infestation.

CCS(=O)(=O)c1cc(N=S(C)(C)=O)cnc1-c1nc2cc(C(F)(F)F)ncc2n1C [P2, [5-ethylsulfonyl-6-[3-methyl-6-(trifluoromethyl)imidazo[4,5-c]pyridin-2-yl]-3-pyridyl]imino-dimethyl-oxo-λ^6-sulfane]
≥ 80%: mortality at 200 ppm [1] | mortality at 24 ppm [2] | mortality at 200 ppm [3] | percent effect (mortality or growth inhibition) at 200 ppm [4] | mortality at 200 ppm [5] | percent control (mortality, anti-feedant effect or growth inhibition) at 200 ppm [6] | percent effect (mortality or growth inhibition) at 200 ppm [7] | percent effect (mortality or growth inhibition) at 200 ppm [8] | mortality at 200 ppm [9] | mortality at 200 ppm [10]
